Measured values from paper PMC10733463, “Berberine-microbiota interplay: orchestrating gut health through modulation of the gut microbiota and metabolic transformation into bioactive metabolites” (Frontiers in Pharmacology, 2023).

Experiments:
Caco-2 monolayers = test system: Caco-2 monolayers; design: method as in Zhang et al., 2019; conditions: in vitro, among berberine metabolites; ref Zhang et al., 2019; cited from earlier work
[1] = rats, oral administration of berberine; cited from earlier work
[2] = test system: Blautia hansenii (DSM 20583); conditions: DSM 20583, chicken, 10 µg/mL, pH 6
Protocol: (§1) Six strains were tested for their ability to convert berberine into berberine-demethylated metabolites. […] Strains were sub-cultured overnight in M2GSC medium pH 6. The next day, caecal content from a 3-week-old broiler chicken was sampled in anaerobic conditions and 1:1,000 diluted in M2GSC medium pH 6 containing 10 μg/mL berberine. Caecal mixtures were enriched with 1:100 diluted overnight cultures of single bacteria, or with M2GSC (control), and incubated in a 24-well plate, for 48 h. […] Samples were collected and processed as described before. Each bacterial strain was tested in triplicate at 37°C–40°C under anaerobic conditions.
(§2) The UPLC instrument consisted of an Acquity H-Class Quaternary Solvent Manager and an Acquity FTN Sample Manager (Waters, Berchem, Belgium). For chromatographic separation, an Acquity UPLC® HSS T3 column (1.8 µm, 100 mm × 2.1 mm i.d.) was used, protected by a precolumn of the same type (VanGuardTM, 5 mm × 2.1 mm i.d.), both from Waters. […] The column temperature was maintained at 25°C. The autosampler temperature was set at 10°C. The UPLC effluent was sent from 1.2 min to 9.5 min by use of a divert valve to a Xevo TQ-S® triple quadrupole mass spectrometer from Water, equipped with an ESI ion source operating in the positive ionization mode from. The UPLC-MS/MS analysis was run under control of MassLynx software (v4.1), which was used for subsequent data processing as well. For the injection of 1/5 diluted intestinal content samples (see section Preparation of intestinal content samples (ileum and caecum)), the divert valve was used in addition from 7.1 min to 8.4 min to deviate the high amount of berberine and associated IS berberine-d6 eluting in that time window from the UPLC column directly to the waste, rather than to the MS detector to avoid oversaturation of the instrument, influencing subsequent sample extract injections at well. Operating conditions for the ESI source used in the positive ionization mode were optimized by direct infusion of all individual components in combination with the mobile phase at 50% A/50% B delivered at a flow rate of 0.3 mL/min. The following tune parameters were used for detection of all components: capillary voltage, 3 kV, cone voltage, 10 V, source offset, 50 V, source temperature, 150°C, desolvation temperature, 500°C, desolvation gas flow, 800 L/h, cone gas flow, 150 L/h, collision gas flow, 0.2 mL/min, ion energy 1 and 2, 0.5, LM 1 and LM 2 resolution, 3, HM 1 and HM 2 resolution, 15. Components were detected in MS/MS mode using component specific MRM (Multiple Reaction Monitoring) transitions (Supplementary Table S1). Since a commercial standard of thalifendine was not available, MS/MS detection parameters and calibration of berberrubine were used for the detection and quantification of thalifendine, which is a reasonable approach, since both compounds are isomers. No commercial reference standards were available for phase II metabolites, therefore “calculated” MRM transitions were defined as follows: [M + -Gluc] > M+ for glucuronide forms and [M + -SO3] > M+ for sulfate forms, where the loss of glucuronic acid or sulfate corresponded to a mass shift of 176 Da or 80 Da respectively. Phase II metabolites were quantified relatively using the berberine calibration curve ([Wang et al., 2017a]; [Kwon et al., 2020]).

B. coccoides (DSM 935) [3] = conditions: DSM 935, chicken, 10 µg/mL, pH 6
Protocol: as §1, §2

[4] = test system: Blautia hydrogenotrophica (DSM 10507); conditions: DSM 10507, chicken, 10 µg/mL, pH 6
Protocol: as §1, §2

[5] = test system: Eubacterium limosum (LMG 28910); conditions: LMG 28910, chicken, 10 µg/mL, pH 6
Protocol: as §1, §2

Blautia luti (DSM 14534) = conditions: DSM 14534, chicken, 10 µg/mL, pH 6
Protocol: as §1, §2

[6] = test system: Anaerostipes butyraticus (35–7); conditions: 35-7, chicken, 10 µg/mL, pH 6
Protocol: as §1, §2

B. coccoides (DSM 935) [7] = conditions: Blautia coccoides, 10 µg/mL, pH 6
[8] = UPLC-MS/MS quantification of berberine and metabolites in ileal and caecal content; format: in vivo, Ross 308 broiler chickens; conditions: 21 days
From the text: The study was undertaken following the guidelines of the ethics committee of the Faculty of Veterinary Medicine and Bioscience Engineering, Ghent University, in accordance with the EU Directive 2010/63/EU. One-day-old Ross 308 male broilers were obtained from a local hatchery and housed in pens on wood shavings. They were allotted into 4 groups, with three replicate pens per group each housing 8 chickens. The animals were not vaccinated. Water and commercial starter feed (day 1–12, FARM 1 Mash, Country’s Best, Versele Laga, Deinze, Belgium) or grower (day 13–21, FARM 2 mash, Country’s Best, Versele Laga, Deinze, Belgium) were provided ad libitum. The control group received the standard non-supplemented diets, whereas the chickens in other groups were fed the same feed supplemented with 0.1, 0.5 or 1 g berberine/kg feed throughout the whole trial period. At day 21, 4 birds per pen were weighted then euthanized by sodium pentobarbital injection for sampling. Individual jejunal, ileal, caecal and colonic contents were stored at −20°C for microbiota composition analysis (16S rRNA gene sequencing). Additionally, ileal and caecal content samples were collected and stored at −20°C for berberine and berberine-derived metabolite quantification. Duodenal tissue samples were collected and fixed in 4% phosphate buffered formaldehyde for histological analysis. Blood samples were collected in heparin tubes and centrifuged at 524 g for 10 min to recover the plasma fraction, which was further mixed with 17 mg/mL L-ascorbic acid for dihydroberberine stabilization, and stored at −20°C for berberine and berberine-derived metabolite quantification.
(§3) The column temperature was maintained at 25°C. The autosampler temperature was set at 10°C.
250 mg of ileal or caecal content was weighed in a 15 mL polypropylene centrifuge tube and 250 µL of ascorbic acid 170 mg/mL solution was added for stabilization of dihydroberberine, followed by brief vortexing. Subsequently, 25 µL of an internal standard solution containing 250 μg/mL of berberine-d6 and 2.5 μg/mL tetrahydropalmatine were added, followed by brief vortexing. A 2.5 mL volume of extraction solvent was then added, consisting of a 1% (v/v) formic acid solution in methanol. The sample was put on a rotary shaker set at 80 rpm for 20 min, followed by centrifugation (3,720 g, 10 min, 4°C). The supernatant was then diluted, by a factor 5 for measurement of low abundance components, and by a factor 2,000 for measurement of high abundance components. The 1/5 diluted sample extract was prepared directly in an autosampler vial as follows: 200 µL sample extract were mixed with 100 µL ascorbic acid 170 mg/mL solution and 700 µL Milli-Q water. For the 1/2,000 diluted sample extract, an intermediate 1/100 sample dilution was prepared by combining 500 µL sample extract and 49.5 mL of Milli-Q water. 50 μL was then transferred in an autosampler vial followed by the addition of 950 µL of Milli-Q water. For both dilutions, a 5 µL sample aliquot was injected onto the UPLC-MS/MS apparatus. Quantification was based on the ratio of the analyte peak area compared to the peak area of the internal standard tetrahydropalmatine for 1/5 diluted sample extracts, and on the ratio of the analyte peak area compared to the peak area of the internal standard berberine-d6 for 1/2,000 diluted sample extracts.
Calibration standards and quality control samples were prepared as follows: 250 mg of blank ileal or caecal content were supplemented with 250 µL of ascorbic acid 170 mg/mL solution, 25 µL mixed solution of berberine and metabolites (with the exception of dihydroberberine) at different levels, 25 µL of dihydroberberine solution, stabilized with 17 mg/mL ascorbic acid, at different levels and 25 µL of an internal standard solution containing 0.625 μg/mL of berberine-d6 and 2.5 μg/mL tetrahydropalmatine. The calibration curve was in the 62.5–5,000 ng/g range, and included 62.5, 125, 250, 500, 1,000, 2,500, and 5,000 ng/g levels. […]

Caco-2 cells = test: Berberine metabolism in intestinal cell cultures, Caco-2; format: in vitro ADME, human; conditions: human, Caco-2, 48 h, 0.1 µg/mL
Protocol: (§4) Caco-2 and T84 cells were seeded at 2 × 10^5 cells/well in 96-well plates and cultivated for 24 h in their respective medium, as described before. Cells were treated with 200 µL of 0.1 μg/mL berberine in antibiotic-free medium and incubated for 48 h. Berberine medium only was incubated in the same conditions as the cells and used as control for metabolite baseline levels. 100 μL of cell cultures or control medium were collected and centrifuged at 13,000 g for 10 min 80 μL of the supernatant was mixed with 20 µL 170 mg/mL L-ascorbic acid solution in water for dihydroberberine stabilization and stored at −20°C until metabolite analysis. All experiments were performed in triplicate at 37°C, 5% CO2. Metabolite production was expressed as a log2 fold change, calculated as the log2 of the ratio of the metabolite response at t = 48 h in the cell cultures over the metabolite response at t = 48 h in the control medium.
as §3

T84 cells = test: Berberine metabolism in intestinal cell cultures, T84; format: in vitro ADME, human; conditions: human, 0.1 µg/mL
Protocol: as §4, §3

Compound | Permeability across Caco-2 monolayers (Caco-2 monolayers) | Amount quantified in feces [1] | Log2(fold change) of metabolite response at 48 h, culture with bacteria over control (berberine-medium + microbiota) [2] | Log2(fold change) of metabolite response at 48 h, culture with bacteria over control (berberine-medium + microbiota) (B. coccoides (DSM 935) [3]) | Log2(fold change) of metabolite response at 48 h, culture with bacteria over control (berberine-medium + microbiota) [4] | Log2(fold change) of metabolite response at 48 h, culture with bacteria over control (berberine-medium + microbiota) [5] | Log2(fold change) of metabolite response at 48 h, culture with bacteria over control (berberine-medium + microbiota) (Blautia luti (DSM 14534)) | Log2(fold change) of metabolite response at 48 h, culture with bacteria over control (berberine-medium + microbiota) [6] | Log2(fold change) of metabolite response at 48 h, B. coccoides pure culture over berberine-medium (B. coccoides (DSM 935) [7]) | Ratio caecum / ileum (concentration) ([8]; 0.1 g berberine/kg feed) | Ratio caecum / ileum (concentration) ([8]; 0.5 g berberine/kg feed) | Ratio caecum / ileum (concentration) ([8]; 1 g berberine/kg feed) | Log2(fold change) of metabolite response, cell culture over berberine control medium at 48 h (Caco-2 cells) | Log2(fold change) of metabolite response, cell culture over berberine control medium at 48 h (T84 cells)
COc1ccc2cc3[n+](cc2c1OC)CCc1cc(O)c(O)cc1-3 [Demethyleneberberine] | most permeable | 1.49% | -0.02 | 1.07 | -3.33e-003 | 0.21 | 1.34 | 0.15 | 1.71 | 15.66 | 30.48 | 32.10 |  | 
COc1cc2c(cc1OC)-c1cc3ccc(OC)c(OC)c3c[n+]1CC2 [Palmatine, palmatine chloride] |  |  |  |  |  |  |  |  |  |  |  |  | -0.18 | -0.72
COc1c(O)ccc2cc3[n+](cc12)CCc1cc2c(cc1-3)OCO2 [Thalifendine] | most permeable |  | 0.34 | 4.46 | 0.26 | 1.37 | -1.30 | 0.21 | 9.30 | 6.68 | 29.03 | 21.17 |  | 
